#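 GI50 marks 50% less growth. TGI marks complete inhibition of growth.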
# Tests used:
# Test in all cases: DTP human tumour cell line panel, 384-well format
# NCI-H226 lung = tested on: NCI-H226 lung
# SNB-75 CNS = tested on: SNB-75 CNS
# KM12 colon = tested on: KM12 colon
# ACHN renal = tested on: ACHN renal
# SN12C renal = tested on: SN12C renal
# RXF 393 renal = tested on: RXF 393 renal
# HCT-116 colon = tested on: HCT-116 colon
# SF-295 CNS = tested on: SF-295 CNS
# SF-539 CNS = tested on: SF-539 CNS
# COLO 205 colon = tested on: COLO 205 colon
# SW-620 colon = tested on: SW-620 colon
# PC-3 prostate = tested on: PC-3 prostate
# T-47D breast = tested on: T-47D breast
# HS 578T breast = tested on: HS 578T breast
# OVCAR-4 ovarian = tested on: OVCAR-4 ovarian
# HL-60(TB) leukemia = tested on: HL-60(TB) leukemia
# OVCAR-3 ovarian = tested on: OVCAR-3 ovarian
# NCI-H460 NSCLC = tested on: NCI-H460 NSCLC
# NCI-H322M lung = tested on: NCI-H322M lung
# DU-145 prostate = tested on: DU-145 prostate
# IGROV1 ovarian = tested on: IGROV1 ovarian
# NCI-H522 lung = tested on: NCI-H522 lung
# HOP-62 NSCLC = tested on: HOP-62 NSCLC
# MDA-MB-468 breast = tested on: MDA-MB-468 breast
# MDA-MB-435 melanoma = tested on: MDA-MB-435 melanoma
# HOP-92 NSCLC = tested on: HOP-92 NSCLC
# MCF7 breast = tested on: MCF7 breast
# K-562 leukemia = tested on: K-562 leukemia
# U251 glioblastoma = tested on: U251 glioblastoma
# HT29 colon = tested on: HT29 colon
# A549 NSCLC = tested on: A549 NSCLC
# SK-MEL-28 melanoma = tested on: SK-MEL-28 melanoma
# UACC-62 melanoma = tested on: UACC-62 melanoma
# CAKI-1 renal = tested on: CAKI-1 renal
# MOLT-4 leukemia = tested on: MOLT-4 leukemia
# A498 renal = tested on: A498 renal
# SK-MEL-2 melanoma = tested on: SK-MEL-2 melanoma
# MALME-3M melanoma = tested on: MALME-3M melanoma
# EKVX NSCLC = tested on: EKVX NSCLC
# NCI-H23 lung = tested on: NCI-H23 lung
# OVCAR-8 ovarian = tested on: OVCAR-8 ovarian
# SF-268 CNS = tested on: SF-268 CNS
# SK-MEL-5 melanoma = tested on: SK-MEL-5 melanoma
# HCT-15 colon = tested on: HCT-15 colon
# UO-31 renal = tested on: UO-31 renal
# MDA-MB-231 breast = tested on: MDA-MB-231 breast
# UACC-257 melanoma = tested on: UACC-257 melanoma
# 786-0 renal = tested on: 786-0 renal
# BT-549 breast = tested on: BT-549 breast
# SK-OV-3 ovarian = tested on: SK-OV-3 ovarian
# SR leukemia = tested on: SR leukemia
# OVCAR-5 ovarian = tested on: OVCAR-5 ovarian
# SNB-19 CNS = tested on: SNB-19 CNS
# M14 melanoma = tested on: M14 melanoma
# TK-10 renal = tested on: TK-10 renal
compound,measurement,setting,value
C[C@@H](N)COc1ccc(-c2cnc3ccc(N[C@H](C)c4cccc(F)c4)nn23)cc1,GI50,NCI-H226 lung,1430 nM
same,TGI,NCI-H226 lung,2830 nM
same,GI50,SNB-75 CNS,1590 nM
same,TGI,SNB-75 CNS,2960 nM
same,GI50,KM12 colon,1600 nM
same,TGI,KM12 colon,3000 nM
same,GI50,ACHN renal,1570 nM
same,TGI,ACHN renal,2940 nM
same,GI50,SN12C renal,1560 nM
same,TGI,SN12C renal,2910 nM
same,GI50,RXF 393 renal,1170 nM
same,TGI,RXF 393 renal,2390 nM
same,GI50,HCT-116 colon,1490 nM
same,TGI,HCT-116 colon,2860 nM
same,GI50,SF-295 CNS,1640 nM
same,TGI,SF-295 CNS,3020 nM
same,GI50,SF-539 CNS,1420 nM
same,TGI,SF-539 CNS,2740 nM
same,GI50,COLO 205 colon,1620 nM
same,TGI,COLO 205 colon,3010 nM
same,GI50,SW-620 colon,1430 nM
same,TGI,SW-620 colon,2780 nM
same,GI50,PC-3 prostate,1460 nM
same,TGI,PC-3 prostate,2910 nM
same,GI50,T-47D breast,1350 nM
same,TGI,T-47D breast,2660 nM
same,GI50,HS 578T breast,1470 nM
same,TGI,HS 578T breast,2800 nM
same,GI50,OVCAR-4 ovarian,1490 nM
same,TGI,OVCAR-4 ovarian,3240 nM
same,GI50,HL-60(TB) leukemia,1070 nM
same,TGI,HL-60(TB) leukemia,2270 nM
same,GI50,OVCAR-3 ovarian,1620 nM
same,TGI,OVCAR-3 ovarian,3160 nM
same,TGI,NCI-H460 NSCLC,1440 nM
same,GI50,NCI-H322M lung,2180 nM
same,TGI,NCI-H322M lung,4100 nM
same,GI50,DU-145 prostate,1530 nM
same,TGI,DU-145 prostate,2960 nM
same,GI50,IGROV1 ovarian,1620 nM
same,TGI,IGROV1 ovarian,3050 nM
same,GI50,NCI-H522 lung,1160 nM
same,TGI,NCI-H522 lung,2390 nM
same,GI50,HOP-62 NSCLC,1730 nM
same,TGI,HOP-62 NSCLC,3160 nM
same,GI50,MDA-MB-468 breast,1000 nM
same,TGI,MDA-MB-468 breast,2170 nM
same,GI50,MDA-MB-435 melanoma,1440 nM
same,TGI,MDA-MB-435 melanoma,2760 nM
same,GI50,HOP-92 NSCLC,1510 nM
same,TGI,HOP-92 NSCLC,2850 nM
same,GI50,MCF7 breast,1140 nM
same,TGI,MCF7 breast,2370 nM
same,GI50,K-562 leukemia,1110 nM
same,TGI,K-562 leukemia,2360 nM
same,GI50,U251 glioblastoma,1600 nM
same,TGI,U251 glioblastoma,2960 nM
same,GI50,HT29 colon,1300 nM
same,TGI,HT29 colon,2590 nM
same,GI50,A549 NSCLC,1560 nM
same,TGI,A549 NSCLC,2940 nM
same,GI50,SK-MEL-28 melanoma,1630 nM
same,TGI,SK-MEL-28 melanoma,3010 nM
same,GI50,UACC-62 melanoma,1720 nM
same,TGI,UACC-62 melanoma,3100 nM
same,GI50,CAKI-1 renal,1680 nM
same,TGI,CAKI-1 renal,3050 nM
same,GI50,MOLT-4 leukemia,1130 nM
same,TGI,MOLT-4 leukemia,2350 nM
same,GI50,A498 renal,1590 nM
same,TGI,A498 renal,2960 nM
same,GI50,SK-MEL-2 melanoma,1270 nM
same,TGI,SK-MEL-2 melanoma,2540 nM
same,GI50,MALME-3M melanoma,1680 nM
same,TGI,MALME-3M melanoma,3060 nM
same,GI50,EKVX NSCLC,1020 nM
same,TGI,EKVX NSCLC,2220 nM
same,GI50,NCI-H23 lung,1540 nM
same,TGI,NCI-H23 lung,3150 nM
same,GI50,OVCAR-8 ovarian,1600 nM
same,TGI,OVCAR-8 ovarian,2970 nM
same,GI50,SF-268 CNS,1590 nM
same,TGI,SF-268 CNS,2960 nM
same,GI50,SK-MEL-5 melanoma,1030 nM
same,TGI,SK-MEL-5 melanoma,2220 nM
same,GI50,HCT-15 colon,1630 nM
same,TGI,HCT-15 colon,3040 nM
same,GI50,UO-31 renal,1790 nM
same,TGI,UO-31 renal,3190 nM
same,GI50,MDA-MB-231 breast,1420 nM
same,TGI,MDA-MB-231 breast,2760 nM
same,GI50,UACC-257 melanoma,1380 nM
same,TGI,UACC-257 melanoma,2690 nM
same,GI50,786-0 renal,1550 nM
same,TGI,786-0 renal,2900 nM
same,GI50,BT-549 breast,1370 nM
same,TGI,BT-549 breast,2660 nM
same,GI50,SK-OV-3 ovarian,1470 nM
same,TGI,SK-OV-3 ovarian,2850 nM
same,GI50,SR leukemia,34.5 nM
same,TGI,SR leukemia,125 nM
same,GI50,OVCAR-5 ovarian,1250 nM
same,TGI,OVCAR-5 ovarian,2610 nM
same,GI50,SNB-19 CNS,2060 nM
same,TGI,SNB-19 CNS,4040 nM
same,GI50,M14 melanoma,1730 nM
same,TGI,M14 melanoma,3110 nM
same,GI50,TK-10 renal,1520 nM
same,TGI,TK-10 renal,2900 nM
